Patent US20250388575A1, “HETEROBIFUNCTIONAL COMPOUNDS AND METHODS OF TREATING DISEASE” (Halda Therapeutics OpCo, Inc., priority 2022, published 2025)

Legend:
[1] = test system: T-Rex 293 cell line SC cells having increased expression of progesterone receptor isoform B protein; experiment: Cellular growth inhibition, T-Rex 293 SC cells with increased progesterone receptor isoform B expression (doxycycline), CellTiter-Glo; type: cell-based; conditions: progesterone receptor isoform B induced with 10 ng/mL doxycycline, 72 hours
Method: (§1) The following types of cells were prepared for this experiment: (i) a T-Rex 293 cell line having increased expression of progesterone receptor isoform B protein due to exposure to doxycycline and (ii) a T-Rex 293 cell line lacking increased expression of progesterone receptor isoform B protein. Ability of the test compounds to inhibit proliferation of the foregoing cell types was evaluated according to the procedures set forth below.
(§2) The doxycycline-inducible progesterone receptor isoform B protein expressing cell line was established using the following protocol: T-Rex 293 cells were purchased from Invitrogen (Cat #R71007) and transfected using Lipofectamine 2000 with the wild-type progesterone receptor B protein sequence cloned into the pcDNA4/TO vector. Transfected cells were selected using 400 μg/mL Zeocin (Invitrogen Cat #R25001). Following selection, single clones were raised and maintained in Dulbecco's Modified Eagle Medium (DMEM) supplemented with 10% w/w Tetracycline-free fetal bovine serum (FBS) and 250 μg/mL Zeocin. Clones were analyzed for expression of progesterone receptor isoform B protein in the presence and absence of 10 ng/ml doxycycline (Sigma Cat #D9891), and a single doxycycline-inducible clone (hereinafter “SC”) was selected for use in downstream assays.
(§3) The SC cells were seeded on poly-D-lysine coated, black clear-bottom 384-well plates at 2500/well, in 25 μL Phenol Red Free Dulbecco's Modified Eagle Medium (DMEM) supplemented with 10% w/w charcoal-dextran treated fetal bovine serum (FBS) and 1% w/w pen-strep, with or without 10 ng/mL doxycycline. Pen-Strep is a commercially available mixture of penicillin G and streptomycin, which is used in mammalian cell culture media to prevent bacterial contamination. Phenol Red Free Dulbecco's Modified Eagle Medium (DMEM) supplemented with 10% w/w charcoal-dextran treated fetal bovine serum (FBS) and 1% w/w pen-strep, with or without 10 ng/mL doxycycline is herein referred to as Treatment Medium. Following seeding of cells in the plates, the plates were spun at 300×g for 30 seconds, then equilibrated to room temperature for 30 minutes, and then deposited in a humidified tissue culture incubator maintained at 37° C. with 5% CO2.
(§4) At 24 hours after seeding of the cells, dilutions of test compound were prepared in DMSO and dissolved in Treatment Medium, to achieve a final DMSO concentration of 0.5% w/w, thereby providing the Test Compound Solution. A 25 μL aliquot of the Test Compound Solution was added to cells in the well plates. An equal volume of a solution containing DMSO and Treatment Medium was used as a negative control. Following treatment of cells with Test Compound Solution or said equal volume of a solution containing DMSO and Treatment Medium, the plates were spun at 300×g for 30 seconds, and then left in an incubator for 72 hours.
(§5) At the end of the treatment duration, cell viability was quantified with CellTiter-Glo 2.0 reagent (Promega Cat #G9243). For this purpose, plates were equilibrated to room temperature for 30 minutes, and then 25 μL of CellTiter-Glo 2.0 reagent was added to cells in the plate wells. Plates were then agitated on a shaker for two minutes at 500 rpm and subsequently incubated at room temperature for 10 minutes. Following incubation, the plates were spun at 3000×g for 30 seconds, then sealed with an optical adhesive cover, and luminescence readings were measured with an EnVision Plate Reader (Perkin Elmer).
(§6) Data was normalized using zero luminescence for baseline. A four-parameter non-linear regression curve fit was applied to dose-response data in GraphPad Prism data analysis software to determine the half-maximal growth inhibitory concentration (GI50) for each test compound.

[2] = target: progesterone receptor (Homo sapiens, UniProt P06401); experiment: PR Human Progesterone NHR Binding (Agonist Radioligand) Assay, [3H]progesterone, T47D cytosol; conditions: 0.5 nM [3H]progesterone, T47D cytosolic fractions, 1 hour at 4° C., legend words it as Kd
Method: Compounds were tested using the PR Human Progesterone NHR Binding (Agonist Radioligand) Assay, Cerep at Eurofins Discovery using a modified version of the protocol from Sarup et al. (Cancer Res 1988; 48:5071-5078). Briefly, cytosolic fractions of T47D cells were incubated with 0.5 nM [^3H]progesterone for 1 hour at 4° C. in the absence or presence of the test compound. Nonspecific binding was determined in the presence of 1 μM promegestone. Reactions were subjected to scintillation counting. Results are expressed as a percent inhibition of the control radioligand specific binding.

[3] = target: progesterone receptor ligand binding domain (LBD) (Homo sapiens (Human), UniProt P06401); experiment: FP assay for binding affinity to progesterone receptor (PolarScreen Progesterone Receptor Competitor Assay); conditions: GST-tagged PR LBD, Fluormone tracer, fluorescence polarization, 2 hours at room temperature
Method: Compounds were tested using the PolarScreen™ Progesterone Receptor Competitor Assay Kit (Life Technologies Cat #A15905 or a15906), as per the manufacturer's instructions. Briefly, GST-tagged PR LBD, Fluormone tracer, and compound were mixed and incubated for 2 hours at room temperature in the dark. Following incubation, the plates were spun at 3000×g for 30 seconds, then sealed with an optical adhesive cover, and fluorescence polarization was measured using appropriate excitation and emission filters with an EnVision Plate Reader (Perkin Elmer). Compound concentration vs. mP value were plotted in Prism (GraphPad). A four-parameter non-linear regression curve fit was applied to dose-response data to determine the half-maximal inhibitory concentration (IC50) for each test compound.

[4] = test system: T-Rex 293 cell line SC cells lacking increased expression of progesterone receptor isoform B protein; experiment: Cellular growth inhibition, T-Rex 293 SC cells lacking increased progesterone receptor isoform B expression (no doxycycline), CellTiter-Glo; type: cell-based; conditions: T-Rex 293 SC cells not exposed to doxycycline, 72 hours
Method: as §1, §2, §3, §4, §5, §6

[5] = target: androgen receptor (Homo sapiens, UniProt P10275); experiment: Assay for binding affinity to androgen receptor ([3H]methyltrienolone radioligand, cell cytosol); conditions: binding to the androgen receptor, 1 nM [3H]methyltrienolone, 24 hr at 4° C.
Method: Fractions of cell cytosol (106 cell/point) were incubated for 24 hr at 4° C. with 1 nM [^3H]methyltrienolone in the absence or presence of the test compound in a buffer containing 25 mM Hepes-Tris (pH 7.4), 1 mM EDTA, 10 mM Na2MoO4, 2 mM DTT, 5 µM triamcinolone acetonide, and 10% glycerol. Nonspecific binding was determined in the presence of 1 μM testosterone. Following incubation, the samples were filtered rapidly under vacuum through glass fiber filters (GF/B, Packard) presoaked with 0.3% PEI and rinsed several times with ice-cold 50 mM Tris-HCl using a 96-sample cell harvester (Unifilter, Packard). The filters were dried then counted for radioactivity in a scintillation counter (Topcount, Packard) using a scintillation cocktail (Microscint 0, Packard). The results are expressed as a percent inhibition of the control radioligand specific binding. The standard reference compound is testosterone, which is tested in each experiment at several concentrations to obtain a competition curve from which its IC50 is calculated.

Chain of progesterone receptor ligand binding domain (LBD) (P06401 679-913): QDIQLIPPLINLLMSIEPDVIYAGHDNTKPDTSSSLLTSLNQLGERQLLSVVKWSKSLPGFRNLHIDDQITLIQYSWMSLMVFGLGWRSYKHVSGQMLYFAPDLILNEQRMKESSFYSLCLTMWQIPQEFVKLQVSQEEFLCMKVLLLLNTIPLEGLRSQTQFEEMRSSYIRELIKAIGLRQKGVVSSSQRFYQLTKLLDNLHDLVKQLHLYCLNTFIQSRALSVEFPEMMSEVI
Chain of progesterone receptor (P06401 whole entry, looked up): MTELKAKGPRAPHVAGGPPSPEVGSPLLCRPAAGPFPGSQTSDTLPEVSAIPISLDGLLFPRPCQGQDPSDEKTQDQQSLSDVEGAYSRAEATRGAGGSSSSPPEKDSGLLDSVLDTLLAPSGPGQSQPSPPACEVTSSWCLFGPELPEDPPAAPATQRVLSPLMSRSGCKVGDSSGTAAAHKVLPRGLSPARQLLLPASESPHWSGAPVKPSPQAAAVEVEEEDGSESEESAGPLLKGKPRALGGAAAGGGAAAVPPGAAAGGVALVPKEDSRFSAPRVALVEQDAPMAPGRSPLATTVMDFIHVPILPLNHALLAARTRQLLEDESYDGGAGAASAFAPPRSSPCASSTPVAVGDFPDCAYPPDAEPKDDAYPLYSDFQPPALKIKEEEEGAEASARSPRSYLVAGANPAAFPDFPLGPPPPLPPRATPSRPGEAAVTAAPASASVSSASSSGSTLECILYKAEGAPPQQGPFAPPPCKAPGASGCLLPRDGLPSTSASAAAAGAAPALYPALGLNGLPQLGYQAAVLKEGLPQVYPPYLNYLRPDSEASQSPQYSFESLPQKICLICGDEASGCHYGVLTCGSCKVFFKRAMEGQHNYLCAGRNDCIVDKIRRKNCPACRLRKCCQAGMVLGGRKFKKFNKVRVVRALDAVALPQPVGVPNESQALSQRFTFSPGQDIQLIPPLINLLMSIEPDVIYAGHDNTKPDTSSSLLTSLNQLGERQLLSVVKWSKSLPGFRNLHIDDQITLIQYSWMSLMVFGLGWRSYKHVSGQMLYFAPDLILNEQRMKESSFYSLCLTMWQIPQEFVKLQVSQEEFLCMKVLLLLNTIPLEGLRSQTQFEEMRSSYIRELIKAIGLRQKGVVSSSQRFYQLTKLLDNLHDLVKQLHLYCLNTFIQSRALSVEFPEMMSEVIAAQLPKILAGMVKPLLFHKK
Chain of androgen receptor (P10275 whole entry, looked up): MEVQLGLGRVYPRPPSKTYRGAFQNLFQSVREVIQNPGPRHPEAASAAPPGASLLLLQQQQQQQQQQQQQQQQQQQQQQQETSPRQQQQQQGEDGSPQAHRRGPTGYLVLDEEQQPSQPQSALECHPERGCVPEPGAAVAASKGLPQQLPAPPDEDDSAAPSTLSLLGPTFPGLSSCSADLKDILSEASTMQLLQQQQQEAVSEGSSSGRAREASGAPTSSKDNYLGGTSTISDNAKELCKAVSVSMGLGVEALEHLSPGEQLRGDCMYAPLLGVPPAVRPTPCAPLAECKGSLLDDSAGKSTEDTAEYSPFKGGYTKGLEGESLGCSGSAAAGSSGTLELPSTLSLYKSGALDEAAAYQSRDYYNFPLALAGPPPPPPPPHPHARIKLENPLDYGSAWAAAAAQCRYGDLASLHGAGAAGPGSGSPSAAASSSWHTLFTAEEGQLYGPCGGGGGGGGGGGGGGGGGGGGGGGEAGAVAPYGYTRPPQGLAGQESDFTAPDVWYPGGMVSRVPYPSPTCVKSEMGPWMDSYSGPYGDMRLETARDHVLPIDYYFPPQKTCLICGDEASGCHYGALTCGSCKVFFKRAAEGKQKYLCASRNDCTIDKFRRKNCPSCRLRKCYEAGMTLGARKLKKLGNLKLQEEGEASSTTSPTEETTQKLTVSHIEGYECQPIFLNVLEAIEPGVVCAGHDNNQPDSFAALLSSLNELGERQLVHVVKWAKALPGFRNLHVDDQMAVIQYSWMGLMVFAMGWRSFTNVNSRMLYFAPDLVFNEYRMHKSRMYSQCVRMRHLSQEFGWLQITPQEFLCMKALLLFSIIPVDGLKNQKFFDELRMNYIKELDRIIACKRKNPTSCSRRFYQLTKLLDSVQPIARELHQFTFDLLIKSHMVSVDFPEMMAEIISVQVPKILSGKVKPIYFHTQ

Compound | GI50 [1] [nM] | Ki [2] [nM] | IC50 [3] [nM] | GI50 [4] [nM] | Kd [5] [nM]
CCS(=O)(=O)Nc1ccc(Oc2cccc(OCCOC3CCN(c4ccc(C(=O)N[C@H]5CC[C@H](Oc6ccc(C#N)c(Cl)c6)CC5)nn4)CC3)c2)c(-c2cn(C)c(=O)c3[nH]ccc23)c1 [I-1, N-[4-(3-chloro-4-cyano-phenoxy)cyclohexyl]-6-[4-[2-[3-[4-(ethylsulfonylamino)-2-(6-methyl-7-oxo-1H-pyrrolo[2,3-c]pyridin-4-yl)phenoxy]phenoxy]ethoxy]-1-piperidyl]pyridazine-3-carboxamide] | < 500 | 500 to 2500 | 500 to 2500 | < 500 | –
CCS(=O)(=O)c1ccc(Oc2cccc(CCCOC3CC4(C3)CN(c3ccc(C(=O)N[C@H]5CC[C@H](Oc6ccc(C#N)c(Cl)c6)CC5)nn3)C4)c2F)c(-c2cn(C)c(=O)c3[nH]ccc23)c1 [I-46] | < 500 | – | – | < 500 | –
CCS(=O)(=O)c1ccc(Oc2cccc(CCC3CCN(c4ccc(C(=O)N[C@H]5CC[C@H](Oc6ccc(C#N)c(Cl)c6)CC5)nn4)CC3)c2F)c(-c2cn(C)c(=O)c3[nH]ccc23)c1 [I-51] | – | – | 50 to 500 | – | –
CCS(=O)(=O)c1ccc(Oc2cccc(CCCC3CCN(c4ccc(C(=O)N[C@H]5CC[C@H](Oc6ccc(C#N)c(Cl)c6)CC5)nn4)CC3)c2F)c(-c2cn(C)c(=O)c3[nH]ccc23)c1 [I-52] | – | – | 50 to 500 | – | –
CCS(=O)(=O)c1ccc(Oc2cc(F)c(CCC3CCN(c4ccc(C(=O)N[C@H]5CC[C@H](Oc6ccc(C#N)c(Cl)c6)CC5)nn4)CC3)cc2F)c(-c2cn(C)c(=O)c3[nH]ccc23)c1 [I-59] | < 500 | – | – | 500 to 1500 | –
Cn1cc(-c2cc(C(C)(C)O)ccc2Oc2ccc(OC3CN(c4ccc(C(=O)N[C@H]5CC[C@H](Oc6ccc(C#N)c(Cl)c6)CC5)nn4)C3)cc2)c2cc[nH]c2c1=O [I-95, N-[4-(3-chloro-4-cyano-phenoxy)cyclohexyl]-6-[3-[4-[4-(1-hydroxy-1-methyl-ethyl)-2-(6-methyl-7-oxo-1H-pyrrolo[2,3-c]pyridin-4-yl)phenoxy]phenoxy]azetidin-1-yl]pyridazine-3-carboxamide] | < 500 | – | – | < 500 | –
Cn1cc(-c2cc(C(C)(C)O)ccc2Oc2ccc(CCC3CCN(c4ccc(C(=O)N[C@H]5CC[C@H](Oc6ccc(C#N)c(Cl)c6)CC5)nn4)CC3)cc2)c2cc[nH]c2c1=O [I-102] | < 500 | – | – | < 500 | 50 to 500
Cn1cc(-c2cc(C(C)(C)O)ccc2Oc2c(F)cc(CCOC3CCN(c4ccc(C(=O)N[C@H]5CC[C@H](Oc6ccc(C#N)c(Cl)c6)CC5)nn4)CC3)cc2F)c2cc[nH]c2c1=O [I-109] | – | – | 50 to 500 | – | –
Cn1cc(-c2cc(C(C)(C)O)ccc2O[C@H]2C[C@H](N(C)CC3CCN(c4ccc(C(=O)N[C@H]5CC[C@H](Oc6ccc(C#N)c(Cl)c6)CC5)nn4)CC3)C2)c2cc[nH]c2c1=O [I-158, N-((1r,4r)-4-(3-chloro-4-cyanophenoxy)cyclohexyl)-6-(4-((((1r,3r)-3-(4-(2-hydroxypropan-2-yl)-2-(6-methyl-7-oxo-6,7-dihydro-1H-pyrrolo[2,3-c]pyridin-4-yl)phenoxy)cyclobutyl)(methyl)amino)methyl)piperidin-1-yl)pyridazine-3-carboxamide] | – | – | 500 to 2500 | – | –
